Laboratory results published in US20120252853A1, “Positive allosteric modulators of nicotinic acetylcholine receptor” (H. Lundbeck A/S, priority 2011, published 2012).

Target: human α7 receptor (Homo sapiens, UniProt P36544)
Test: α7 NNR flux assay (FDSS Ca assay)
Format: cell-based
Conditions: positive allosteric modulation; rat GH4C1 cell line stably expressing human α7; acetylcholine 20 μM; % modulation relative to PNU-120596 set to 100%
Protocol: In this version of the assay, the human α7 receptor is stably expressed in the rat GH4C1 cell line. The assay was used to identify positive allosteric modulators (PAMs) of the α7 receptor. Activation of the channel was measured by loading cells with the calcium-sensitive fluorescent dye Calcium-4 (Assay kit from Molecular Devices), and then measuring real-time changes in fluorescence upon treatment with test compounds.
The cell line ChanClone GH4C1-nAChRalpha7 from Genionics was seeded from frozen stock in 384-well plates in culture media 2-3 days before experiment to form an approximately 80% confluent layer on the day of experiment.
The cell culture were split into “22.5 cm×22.5 cm”-plates with approximately 100×10^3 cells/cm^2. After four days incubation in a humidified incubator at 37° C. and 5% CO2, it had grown to an 80-90% confluent layer, and the cells were harvested.
Two or three days before the experiment the cells were seeded in 384 well plates from Greiner bio-one (781946, CELLCOAT, Poly-D-Lysine, black, μClear).
The cells were seeded in 384 well plates with 30 μL/well (30000 cells/well) while stirring the cell suspension or otherwise preventing the cells from precipitating. The plates were incubated at room temperature for 30-45 minutes. The plates were placed in incubator for two days (37° C. and 5% CO2).
The loading buffer was 5% v/v Calcium-4 Kit and 2.5 mM Probenecid in assay buffer.
Culture media were removed from the cell plates and 20 μL loading buffer was added in each well. The cell plates were placed in trays and incubated 90 minutes in the incubator (37° C.). Thereafter the plates were incubated 30 minutes at room temperature, still protected from light. Now the cell plates were ready to run in the Functional Drug Screening System (FDSS) The assay buffer was HBSS with 20 mM HEPES, pH 7.4 and 3 mM CaCl2.
200 nL 10 mM compound solution in DMSO was diluted in 50 μL assay buffer. The final test concentrations in the cell plates were 20-10-5-2.5-1.25-0.625-0.312-0.156-0.078-0.039 μM. Assay buffer and 3 μM PNU-120596 were used for control:
The agonist acetylcholine was added to a final concentration of 20 μM (˜EC100). In the FDSS7000 the Ex480-Em540 was measured with 1 second intervals. The baseline was made of 5 frames before addition of test compounds, and 95 frames more were made before addition of acetylcholine. The measurement stopped 30 frames after the 2nd addition. Raw data for each well were collected as “the maximum fluorescence count” in the interval 100-131 seconds and as “the average fluorescence count” in the interval 96-100 seconds. The positive allosteric modulation in the 2nd addition was the enhancement of agonist response with test compound compared to agonist alone.
Results were calculated as % modulation of test compound compared to the reference PNU-120596 set to 100%.

Chain of human α7 receptor (P36544 23-502): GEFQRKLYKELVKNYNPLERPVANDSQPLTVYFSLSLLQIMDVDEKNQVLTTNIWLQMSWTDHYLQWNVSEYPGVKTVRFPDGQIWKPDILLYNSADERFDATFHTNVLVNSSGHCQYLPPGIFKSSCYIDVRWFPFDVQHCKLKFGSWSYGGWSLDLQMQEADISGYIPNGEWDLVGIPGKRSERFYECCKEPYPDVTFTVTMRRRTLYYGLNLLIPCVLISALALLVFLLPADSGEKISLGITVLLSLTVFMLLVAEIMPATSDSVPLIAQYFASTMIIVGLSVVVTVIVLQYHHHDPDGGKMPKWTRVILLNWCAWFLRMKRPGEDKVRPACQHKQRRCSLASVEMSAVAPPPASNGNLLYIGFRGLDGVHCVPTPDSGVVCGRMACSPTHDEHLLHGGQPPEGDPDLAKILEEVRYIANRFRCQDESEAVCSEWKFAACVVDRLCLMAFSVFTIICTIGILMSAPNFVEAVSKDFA

Row | EC50 [µM] | SMILES
1 | 6 | Cc1cc2cc(CNC(=O)c3nnc(C)o3)ccc2[nH]1 [Compound 74, 5-methyl-N-[(2-methyl-1H-indol-5-yl)methyl]-1,3,4-oxadiazole-2-carboxamide]
2 | 2.1 | CCc1cc(C(=O)NCc2ccc3[nH]c(C)cc3c2)no1 [Compound 75, 5-ethyl-N-[(2-methyl-1H-indol-5-yl)methyl]isoxazole-3-carboxamide]
3 | 8.2 | Cc1cc2cc(CNC(=O)c3coc(C)n3)ccc2[nH]1 [Compound 76, 2-methyl-N-[(2-methyl-1H-indol-5-yl)methyl]oxazole-4-carboxamide]
4 | 10.5 | Cc1cc2cc(CNC(=O)c3noc(C)n3)ccc2[nH]1 [Compound 77, 5-methyl-N-[(2-methyl-1H-indol-5-yl)methyl]-1,2,4-oxadiazole-3-carboxamide]
5 | 0.61 | [2H]C([2H])([2H])c1cc2cc(CNC(=O)c3cc(CC(F)(F)F)no3)ccc2[nH]1 [Compound 78, N-[[2-(trideuteriomethyl)-1H-indol-5-yl]methyl]-3-(2,2,2-trifluoroethyl)isoxazole-5-carboxamide]
6 | 0.56 | Cc1cc2cc(CNC(=O)c3cc(CC(F)(F)F)no3)ccc2[nH]1 [Compound 79]
7 | 5.7 | Cc1cc(C(=O)NCc2ccc3c(ccn3C(F)(F)F)c2)on1 [Compound 80, 3-methyl-N-[[1-(trifluoromethyl)indol-5-yl]methyl]isoxazole-5-carboxamide]
8 | 6 | O=C(NCc1ccc2c(ccn2C(F)(F)F)c1)c1cnn(CC(F)(F)F)c1 [Compound 81, 1-(2,2,2-trifluoroethyl)-N-[[1-(trifluoromethyl)indol-5-yl]methyl]pyrazole-4-carboxamide]
9 | 0.98 | [2H]C([2H])([2H])c1cc2cc(CNC(=O)c3cnn(CC(F)(F)F)c3)ccc2[nH]1 [Compound 82]
10 | 11 | Cc1cc2cc(CNC(=O)c3cnn(CC(F)(F)F)c3)ccc2n1C(F)(F)F [Compound 83, N-[[2-methyl-1-(trifluoromethyl)indol-5-yl]methyl]-1-(2,2,2-trifluromethyl)pyrazole-4-carboxamide]
11 | 6 | Cc1cc(C(=O)NCc2ccc3c(c2)cc(C)n3C(F)(F)F)on1 [Compound 84, 3-methyl-N-[[2-methyl-1-(trifluoromethyl)indol-5-yl]methyl]isoxazole-5-carboxamide]
12 | 7.7 | Cc1cc2cc(CNC(=O)c3cc(CC(F)(F)F)no3)ccc2n1C(F)(F)F [Compound 85, N-[[2-methyl-1-(trifluoromethyl)indol-5-yl]methyl]-3-(2,2,2-trifluoroethyl)isoxazole-5-carboxamide]
13 | 2.6 | Cc1cc2cc(CNC(=O)c3cc(C(C)(C)C)on3)ccc2[nH]1 [Compound 87, 5-tert-butyl-N-[(2-methyl-1H-indol-5-yl)methyl]isoxazole-3-carboxamide]
14 | 6.2 | Cn1c(C(F)(F)F)cc2cc(CNC(=O)c3cnn(CC(F)(F)F)c3)ccc21 [Compound 88, N-[[1-methyl-2-(trifluoromethyl)indol-5-yl]methyl]-1-(2,2,2-trifluoroethyl)pyrazole-4-carboxamide]
15 | 5.6 | Cc1cc(C(=O)NCc2ccc3c(c2)cc(C(F)(F)F)n3C)on1 [Compound 89, 3-methyl-N-[[1-methyl-2-(trifluoromethyl)indol-5-yl]methyl]isoxazole-5-carboxamide]
16 | 5 | Cn1c(C(F)(F)F)cc2cc(CNC(=O)c3cc(CC(F)(F)F)no3)ccc21 [Compound 90, N-[[1-methyl-2-(trifluoromethyl)indol-5-yl]methyl]-3-(2,2,2-trifluoroethyl)isoxazole-5-carboxamide]
17 | 1.7 | O=C(NCc1ccc2[nH]c(C(F)F)cc2c1)c1cnn(CC(F)(F)F)c1 [Compound 91, N-[[2-(difluoromethyl)-1H-indol-5-yl]methyl]-1-(2,2,2-trifluoroethyl)pyrazole-4-carboxamide]
18 | 8.3 | Cc1cc(C(=O)NCc2ccc3[nH]c(C(F)F)cc3c2)on1 [Compound 92, N-[[2-(difluoromethyl)-1H-indol-5-yl]methyl]-3-methyl-isoxazole-5-carboxamide]
19 | 5.4 | O=C(NCc1ccc2[nH]c(C(F)F)cc2c1)c1cc(CC(F)(F)F)no1 [Compound 93, N-[[2-(difluoromethyl)-1H-indol-5-yl]methyl]-3-(2,2,2-trifluoroethyl)isoxazole-5-carboxamide]

Row | EC50 [µM] | SMILES
20 | 9.5 | Cc1cc2cc(CNC(=O)c3ccn(CCF)n3)ccc2[nH]1 [Compound 94, 1-(2-fluoroethyl)-N-[(2-methyl-1H-indol-5-yl)methyl]pyrazole-3-carboxamide]
21 | 7.7 | COCCn1ccc(C(=O)NCc2ccc3[nH]c(C)cc3c2)n1 [Compound 95, 1-(2-methoxyethyl)-N-[(2-methyl-1H-indol-5-yl)methyl]pyrazole-3-carboxamide]
22 | 3.5 | COCc1cc(C(=O)NCc2ccc3[nH]c(C)cc3c2)on1 [Compound 98, 3-(methoxymethyl)-N-[(2-methyl-1H-indol-5-yl)methyl]isoxazole-5-carboxamide]
23 | 6.4 | Cc1cc2cc(CNC(=O)c3cnn(CCF)c3)ccc2[nH]1 [Compound 99, 1-(2-fluoroethyl)-N-[(2-methyl-1H-indol-5-yl)methyl]pyrazole-4-carboxamide]
24 | 8.5 | COCCn1cc(C(=O)NCc2ccc3[nH]c(C)cc3c2)cn1 [Compound 100, 1-(2-methoxyethyl)-N-[(2-methyl-1H-indol-5-yl)methyl]pyrazole-4-carboxamide]
25 | 2.9 | Cc1[nH]c2ccc(CNC(=O)c3cnn(CC(F)(F)F)c3)cc2c1C [Compound 101, N-[(2,3-dimethyl-1H-indol-5-yl)methyl]-1-(2,2,2-trifluoroethyl)pyrazole-4-carboxamide]
26 | 1 | Cc1cc(C(=O)N[C@H](C)c2cc3cc(C)[nH]c3cc2F)on1 [Compound 102, N-[(1R)-1-(6-fluoro-2-methyl-1H-indol-5-yl)ethyl]-3-methyl-isoxazole-5-carboxamide]
27 | 0.33 | Cc1cc(C(=O)N[C@H](C)c2cc3cc[nH]c3c(C)c2F)on1 [Compound 103]
28 | 4.2 | Cc1cc(C(=O)NCc2cc3cc(C)[nH]c3cc2F)on1 [Compound 104, N-[(6-fluoro-2-methyl-1H-indol-5-yl)methyl]-3-methyl-isoxazole-5-carboxamide]
29 | 2.9 | Cc1cc(C(=O)NCc2cc3cc[nH]c3c(C)c2F)on1 [Compound 105, N-[(6-fluoro-7-methyl-1H-indol-5-yl)methyl]-3-methyl-isoxazole-5-carboxamide]
30 | 1.7 | Cc1cc2cc(CNC(=O)c3cc(CCF)no3)ccc2[nH]1 [Compound 106, 3-(2-fluoroethyl)-N-[(2-methyl-1H-indol-5-yl)methyl]isoxazole-5-carboxamide]
31 | 0.56 | Cc1cc(C(=O)NCc2ccc3[nH]c(C)cc3c2)sn1 [Compound 107, 3-methyl-N-[(2-methyl-1H-indol-5-yl)methyl]isothiazole-5-carboxamide]
32 | 7.7 | Cc1cc(C(=O)NCc2ccc3[nH]c(CC(F)(F)F)cc3c2)on1 [Compound 108, 3-methyl-N-[[2-(2,2,2-trifluoroethyl)-1H-indol-5-yl]methyl]isoxazole-5-carboxamide]
33 | 3.1 | Cc1cc(C(=O)NCc2cc(F)c3[nH]c(C)cc3c2)on1 [Compound 109, N-[(7-fluoro-2-methyl-1H-indol-5-yl)methyl]-3-methyl-isoxazole-5-carboxamide]
34 | 6.5 | Cc1cc(C(=O)NCc2ccc3[nH]c(C)cc3c2F)on1 [Compound 110, N-[(4-fluoro-2-methyl-1H-indol-5-yl)methyl]-3-methyl-isoxazole-5-carboxamide]
35 | 1.3 | Cc1cc(C(=O)N[C@H](C)c2cc(F)c3[nH]c(C)cc3c2)on1 [Compound 111, N-[(1R)-1-(7-fluoro-2-methyl-1H-indol-5-yl)ethyl]-3-methyl-isoxazole-5-carboxamide]
36 | 1.1 | COCc1cc(C(=O)N[C@H](C)c2ccc3[nH]c(C)cc3c2)on1 [Compound 112, 3-(methoxymethyl)-N-[(1R)-1-(2-methyl-1H-indol-5-yl)ethyl]isoxazole-5-carboxamide]
37 | 0.79 | Cc1cc2cc([C@@H](C)NC(=O)c3cc(CCF)no3)ccc2[nH]1 [Compound 113, 3-(2-fluoroethyl)-N-[(1R)-1-(2-methyl-1H-indol-5-yl)ethyl]isoxazole-5-carboxamide]
